Where two headings read alike, the source gives them in different places.
Columns and labels:
[1] = tested on: Puccinia recondita f. sp. tritici; conditions: in Triticum aestivum, foliar, read-out: control of Puccinia recondita f. sp. tritici (percent disease control compared to untreated)
[2] = tested on: Mycosphaerella arachidis (Cercospora arachidicola); test: Mycosphaerella arachidis (Cercospora arachidicola) / liquid culture (early leaf spot); type: cell-based; conditions: 200 ppm, liquid culture, PDB, 24° C., 4-5 days after application, read-out: control of Mycosphaerella arachidis (inhibition of growth, photometric)
[3] = tested on: Botryotinia fuckeliana (Botrytis cinerea); test: Botryotinia fuckeliana (Botrytis cinerea) / liquid culture (gray mould); type: cell-based; conditions: Vogels broth, 24° C., 3-4 days after application, read-out: control of Botryotinia fuckeliana (inhibition of growth, photometric)
From the text: Botryotinia Fuckeliana (Botrytis cinerea)/Liquid Culture (Gray Mould): Conidia of the fungus from cryogenic storage were directly mixed into nutrient broth (Vogels broth). […].45

[4] = tested on: Thanatephorus cucumeris (Rhizoctonia solani); conditions: read-out: control of Thanatephorus cucumeris (inhibition of growth, photometric)
[5] = tested on: Puccinia recondita f. sp. tritici; conditions: in Triticum aestivum, foliar, read-out: control of Puccinia recondita f. sp. tritici (percent disease control compared to untreated); remark: listed apart in the source
[6] = tested on: Phaeosphaeria nodorum (Septoria nodorum); conditions: Parastagonospora nodorum, in Triticum aestivum, foliar, read-out: control of Phaeosphaeria nodorum (percent disease control compared to untreated)
[7] = tested on: Mycosphaerella graminicola (Septoria tritici); test: Mycosphaerella graminicola (Septoria tritici) / liquid culture (Septoria blotch); type: cell-based; conditions: Zymoseptoria tritici; 200 ppm, liquid culture, PDB, 24° C., 4-5 days after application; read-out: control of Mycosphaerella graminicola (inhibition of growth, photometric)
[8] = tested on: Gaeumannomyces graminis; test: Gaeumannomyces graminis / liquid culture (take-all of cereals); type: cell-based; conditions: 200 ppm, liquid culture, PDB, 24° C., 4-5 days after application, read-out: control of Gaeumannomyces graminis (inhibition of growth, photometric)
[9] = tested on: Pyrenophora teres; conditions: in Hordeum vulgare, foliar, read-out: control of Pyrenophora teres (disease control compared to untreated)
[10] = tested on: Glomerella lagenarium (Colletotrichum lagenarium); test: Glomerella lagenarium (Colletotrichum lagenarium) / liquid culture (anthracnose); type: cell-based; conditions: Colletotrichum orbiculare; 200 ppm, liquid culture, PDB, 24° C., 3-4 days after application; read-out: control of Glomerella lagenarium (inhibition of growth, photometric)

C/C(=N\OCCCc1cccc(-c2ncccn2)n1)c1cccc(C)n1 [P.04]
≥ 80%: pest or weed control at 200 ppm [1] | inhibition at 200 ppm [2] | inhibition at 200 ppm [3] | inhibition at 200 ppm [4] | pest or weed control at 200 ppm [5] | pest or weed control at 200 ppm [6]

C/C(=N\OCCCc1cccc(-c2ccncn2)n1)c1cccc(C)n1 [P.06]
≥ 80%: inhibition at 200 ppm [7] | inhibition at 200 ppm [8]

C/C(=N\OCCCc1cccc(-c2ccnc(-c3ccccc3)n2)n1)c1cccc(C)n1 [P.08]
≥ 80%: inhibition at 200 ppm [2] | inhibition at 200 ppm [3] | inhibition at 200 ppm [7] | inhibition at 200 ppm [8]

CSc1nccc(-c2cccc(CCCO/N=C(\C)c3cccc(C)n3)n2)n1 [P.09]
≥ 80%: pest or weed control at 200 ppm [9] | inhibition at 200 ppm [2] | inhibition at 200 ppm [3] | inhibition at 200 ppm [7] | pest or weed control at 200 ppm [5] | pest or weed control at 200 ppm [6] | inhibition at 200 ppm [8]

C/C(=N\OCCCc1cccc(-c2ccnc(Cc3ccccc3)n2)n1)c1cccc(C)n1 [P.10]
≥ 80%: pest or weed control at 200 ppm [9] | inhibition at 200 ppm [2] | inhibition at 200 ppm [3] | inhibition at 200 ppm [7] | inhibition at 200 ppm [8]

C/C(=N\OCCCc1cccc(-c2cc(O)cc(C)n2)n1)c1cccc(C)n1 [P.14, 1-(6-methyl-pyridin-2-yl)-ethanone-O-[3-(4′-hydroxy-6′-methyl-[2,2′]bipyridinyl-6-yl)-propyl]-oxime]
≥ 80%: inhibition at 200 ppm [2] | inhibition at 200 ppm [7] | inhibition at 200 ppm [8]

CC(=O)c1ccc(-c2cccc(CCCO/N=C(\C)c3cccc(C)n3)n2)nc1C [P.20]
≥ 80%: pest or weed control at 200 ppm [9] | inhibition at 200 ppm [2] | pest or weed control at 200 ppm [6] | inhibition at 200 ppm [8]

CCON=C(C)c1ccc(-c2cccc(CCCO/N=C(\C)c3cccc(C)n3)n2)nc1C [P.23]
≥ 80%: inhibition at 200 ppm [10] | pest or weed control at 200 ppm [1] | pest or weed control at 200 ppm [9] | inhibition at 200 ppm [2] | inhibition at 200 ppm [3] | inhibition at 200 ppm [7] | pest or weed control at 200 ppm [5] | pest or weed control at 200 ppm [6] | inhibition at 200 ppm [8]

CCc1cc(OC)c(C)c(-c2cccc(CCCO/N=C(\C)c3cccc(C)n3)n2)n1 [P.33]
≥ 80%: pest or weed control at 200 ppm [1] | pest or weed control at 200 ppm [9] | inhibition at 200 ppm [2] | inhibition at 200 ppm [3] | inhibition at 200 ppm [7] | inhibition at 200 ppm [4] | pest or weed control at 200 ppm [5] | pest or weed control at 200 ppm [6]

CCOc1cc(CC)nc(-c2cccc(CCCO/N=C(\C)c3cccc(C)n3)n2)c1C [P.34]
≥ 80%: pest or weed control at 200 ppm [1] | pest or weed control at 200 ppm [9] | inhibition at 200 ppm [2] | inhibition at 200 ppm [3] | inhibition at 200 ppm [7] | inhibition at 200 ppm [4] | pest or weed control at 200 ppm [5] | pest or weed control at 200 ppm [6]

CCCOc1cc(CC)nc(-c2cccc(CCCO/N=C(\C)c3cccc(C)n3)n2)c1C [P.35]
≥ 80%: inhibition at 200 ppm [10] | pest or weed control at 200 ppm [1] | pest or weed control at 200 ppm [9] | inhibition at 200 ppm [2] | inhibition at 200 ppm [3] | inhibition at 200 ppm [7] | inhibition at 200 ppm [4] | pest or weed control at 200 ppm [5] | pest or weed control at 200 ppm [6]

CCc1cc(OC(C)C)c(C)c(-c2cccc(CCCO/N=C(\C)c3cccc(C)n3)n2)n1 [P.36]
≥ 80%: inhibition at 200 ppm [10] | pest or weed control at 200 ppm [1] | pest or weed control at 200 ppm [9] | inhibition at 200 ppm [2] | inhibition at 200 ppm [3] | inhibition at 200 ppm [7] | inhibition at 200 ppm [4] | pest or weed control at 200 ppm [5] | pest or weed control at 200 ppm [6]

C=CCOc1cc(CC)nc(-c2cccc(CCCO/N=C(\C)c3cccc(C)n3)n2)c1C [P.37]
≥ 80%: inhibition at 200 ppm [10] | pest or weed control at 200 ppm [1] | pest or weed control at 200 ppm [9] | inhibition at 200 ppm [2] | inhibition at 200 ppm [3] | inhibition at 200 ppm [7] | inhibition at 200 ppm [4] | pest or weed control at 200 ppm [5] | pest or weed control at 200 ppm [6]

Reference: patent US20140045873A1, “NOVEL MICROBIOCIDES” (SYNGENTA PARTICIPATIONS AG, priority 2010, published 2014)
